The values below come from US20260146035A1, “FUSED BICYCLIC COMPOUNDS AND THEIR USE AS MER AND AXL INHIBITORS” (DONG-A ST CO., LTD., priority 2022, published 2026).

Like-named read-outs stand apart in the source and are kept apart here.

Usually IC50 stands for the concentration at which inhibition is half-maximal. Usually % inhibition stands for the percentage by which the read-out fell short of the control. A low value points to a response near the control.

The target of one assay is T1, human TYRO3 (455-end) (Homo sapiens, UniProt Q06418).
T1 construct: TYRO3 (455-end); purchased SignalChem, Canada
T1 sequence (Q06418 455-890 limits assumed): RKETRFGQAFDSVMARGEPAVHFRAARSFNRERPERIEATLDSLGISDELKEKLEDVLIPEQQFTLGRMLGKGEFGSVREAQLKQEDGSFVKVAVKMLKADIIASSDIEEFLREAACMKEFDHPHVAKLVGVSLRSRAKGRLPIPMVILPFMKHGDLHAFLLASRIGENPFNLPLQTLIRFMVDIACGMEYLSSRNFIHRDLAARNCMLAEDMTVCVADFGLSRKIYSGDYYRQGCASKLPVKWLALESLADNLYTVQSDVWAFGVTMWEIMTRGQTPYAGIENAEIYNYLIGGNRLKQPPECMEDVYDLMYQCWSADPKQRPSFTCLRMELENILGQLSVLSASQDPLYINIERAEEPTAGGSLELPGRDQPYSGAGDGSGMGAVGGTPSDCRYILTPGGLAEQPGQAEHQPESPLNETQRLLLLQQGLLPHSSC
The experiment in a line: HTRF kinase activity biochemical assay, TYRO3. The following applies: 10 μM ATP, 30 minutes pre-incubation; read-out: HTRF TYRO IC50.

For the next assay, the target named is T2, human AXL (473-end) (Homo sapiens, UniProt P30530).
T2 construct: human AXL (473-end); purchased SignalChem, Canada
T2 sequence (P30530 473-894 limits assumed): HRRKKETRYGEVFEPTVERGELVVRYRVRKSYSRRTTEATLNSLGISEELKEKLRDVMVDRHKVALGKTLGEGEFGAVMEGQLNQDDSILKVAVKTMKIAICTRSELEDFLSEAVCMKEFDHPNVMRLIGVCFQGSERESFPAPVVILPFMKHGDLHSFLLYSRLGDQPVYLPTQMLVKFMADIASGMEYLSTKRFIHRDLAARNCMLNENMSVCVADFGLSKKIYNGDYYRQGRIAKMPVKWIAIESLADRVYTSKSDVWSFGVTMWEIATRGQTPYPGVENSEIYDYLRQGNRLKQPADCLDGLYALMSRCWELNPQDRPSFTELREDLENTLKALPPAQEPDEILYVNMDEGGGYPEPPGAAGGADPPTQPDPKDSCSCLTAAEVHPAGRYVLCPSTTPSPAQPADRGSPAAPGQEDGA
As to the kind of experiment: HTRF kinase activity biochemical assay, AXL. (In general: Time-resolved FRET reads energy transfer from a long-lived donor to a nearby acceptor.)

The target of another assay is T3, human MER (528-end) (Homo sapiens, UniProt Q12866).
T3 construct: human MER (528-end); purchased Camnabio, Japan
T3 sequence (Q12866 528-999 limits assumed): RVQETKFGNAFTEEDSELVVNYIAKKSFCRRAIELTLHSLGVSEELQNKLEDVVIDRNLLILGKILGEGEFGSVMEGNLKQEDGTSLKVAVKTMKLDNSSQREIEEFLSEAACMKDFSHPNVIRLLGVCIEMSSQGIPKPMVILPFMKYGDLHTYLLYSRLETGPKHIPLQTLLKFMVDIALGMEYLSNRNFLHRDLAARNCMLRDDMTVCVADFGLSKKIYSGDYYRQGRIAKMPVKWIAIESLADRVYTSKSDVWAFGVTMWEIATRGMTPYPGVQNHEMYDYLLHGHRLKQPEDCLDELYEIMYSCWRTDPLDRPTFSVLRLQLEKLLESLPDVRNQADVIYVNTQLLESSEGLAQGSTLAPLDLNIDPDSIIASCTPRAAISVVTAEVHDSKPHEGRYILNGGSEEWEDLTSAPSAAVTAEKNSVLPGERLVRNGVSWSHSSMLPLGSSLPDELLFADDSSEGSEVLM
The experiment in a line: HTRF kinase activity biochemical assay, MER.

Assay [1] deals with phospho-MerTK in BaF3.MerTK tumors. As to the kind of experiment: In vivo Ba/F3 pMER ALISA assay. The following applies: orally; for % inhibition: 50 milligrams per kilogram, single dose, tumors harvested 4 hours after, phospho-MerTK normalized to total MerTK.
Description: BaF3.MerTK tumor cells were mixed with 50% Matrigel (BD, Franklin Lakes, NJ). […] Tumors were allocated into dose groups at 10 to 11 days post tumor cell inoculation, when they were roughly 250-400 mm^3 in size. Test compounds were formulated in 10% ethanol, 30% PEG-400, and 60% Phosal-50PG, for oral dosing at 0.2 mL per dose per mouse. Plasma and tumors were harvested 4 hours after a single dose. Ba/F3 tumors were harvested into 2 mL Precellys CKmix tubes, snap frozen in liquid nitrogen, and stored at −80° C. overnight. […] Precellys tubes were then centrifuged at >18,000 g for 20 minutes at 4° C. and the supernatant was collected on ice. The lysate was then centrifuged again at >18,000 g for 10 minutes at 4° C. to remove any residual debris. […] Plates were then frozen at −80° C. overnight.
The mark [2] stands for this setting: 10 μM ATP, 30 minutes pre-incubation.
Where [3] appears, read: 10 μM ATP, 30 minutes pre-incubation, read-out: HTRF MERTK IC50.

For `Cn1cc(-c2cnc(N)c(C(=O)N[C@H]3CCC[C@@H]3OCc3ccc(-c4ccc5c(c4)C(C)(C)C[C@@H]5N4CCN(CCO)CC4)cc3)c2)cn1` [Example 103, 2-amino-N-{(1S,2S)-2-[(4-{(1S)-1-[4-(2-hydroxyethyl)piperazin-1-yl]-3,3-dimethyl-2,3-dihydro-1H-inden-5-yl}phenyl)methoxy]cyclopentyl}-5-(1-methyl-1H-pyrazol-4-yl)pyridine-3-carboxamide], the IC50 at human TYRO3 (455-end) was under 10 nM; against human AXL (473-end) (setting [2]), under 10 nM; at human AXL (473-end) (in vitro), under 10 nM; at human MER (528-end) (setting [3]), under 10 nM; on human MER (528-end) (in vitro, read-out: HTRF MerTK IC50) it was under 10 nM. The “% inhibition” value in assay [1] was 74%. Besides, in assay [1] (as shown in Tables 3 and 4: 50 milligrams per kilogram), the “% inhibition in the in vivo Ba/F3 pMer ALISA Assay” value came to 74%.
Turning to `Nc1ncc(-c2ccc(F)nc2)cc1C(=O)N[C@H]1CCC[C@@H]1OCc1ccc(-c2ccc3c(c2)CC[C@@H]3N2CCN3C[C@H](O)C[C@H]3C2)cc1` [Example 117, 6-amino-6′-fluoro-N-{(1S,2S)-2-[(4-{(1S)-1-[(7R,8aS)-7-hydroxyhexahydropyrrolo[1,2-a]pyrazin-2 (1H)-yl]-2,3-dihydro-1H-inden-5-yl}phenyl)methoxy]cyclopentyl}[3,3′-bipyridine]-5-carboxamide], the values for the IC50 on human TYRO3 (455-end), on human AXL (473-end) (setting [2]) and on human MER (528-end) (setting [3]) were 100 to 1000 nM, under 10 nM and under 10 nM, respectively. The “% inhibition” value in assay [1] was 64%.
Regarding `Nc1ncc(-c2ccc(F)nc2)cc1C(=O)N[C@H]1CCC[C@@H]1OCc1ccc(-c2ccc3c(ccn3C3CCN(CCO)CC3)c2)cc1` [Example 22, 6-amino-6′-fluoro-N-{(1S,2S)-2-[(4-{1-[1-(2-hydroxyethyl)piperidin-4-yl]-1H-indol-5-yl}phenyl)methoxy]cyclopentyl}[3,3′-bipyridine]-5-carboxamide], the IC50 on human TYRO3 (455-end) was 100 to 1000 nM; against human AXL (473-end) (setting [2]) it was 10 to 100 nM; on human MER (528-end) (setting [3]), under 10 nM.
Taken in the same sequence, the figures for `Cn1cc(-c2cnc(N)c(C(=O)N[C@H]3CCC[C@@H]3OCc3ccc(-c4ccc5c(cnn5C5CCN(CCO)CC5)c4)cc3)c2)cn1` [Example 111, 2-amino-N-{(1S,2S)-2-[(4-{1-[1-(2-hydroxyethyl)piperidin-4-yl]-1H-indazol-5-yl}phenyl)methoxy]cyclopentyl}-5-(1-methyl-1H-pyrazol-4-yl)pyridine-3-carboxamide] were over 1000 nM, 100 to 1000 nM and 10 to 100 nM.
The corresponding values for `Cn1cc(-c2cnc(N)c(C(=O)N[C@H]3CCC[C@@H]3OCc3ccc(-c4ccc5c(c4)CCC5N4CCN(CC(O)CO)CC4)cc3)c2)cn1` (stereo partly drawn) [Example 81, 2-amino-N-{(1S,2S)-2-[(4-{1-[4-(2,3-dihydroxypropyl)piperazin-1-yl]-2,3-dihydro-1H-inden-5-yl}phenyl)methoxy]cyclopentyl}-5-(1-methyl-1H-pyrazol-4-yl)pyridine-3-carboxamide] are 10 to 100 nM, under 10 nM and under 10 nM.
The corresponding values for `Nc1ncc(-c2ccc(F)nc2)cc1C(=O)N[C@H]1CCC[C@@H]1OCc1ccc(-c2ccc3c(c2)C[C@H](F)[C@@H]3N2CCN(CCO)CC2)cc1` (relative stereo) [Example 89, 6-amino-6′-fluoro-N-{(1S,2S)-2-[(4-{(1R*,2S*)-2-fluoro-1-[4-(2-hydroxyethyl)piperazin-1-yl]-2,3-dihydro-1H-inden-5-yl}phenyl)methoxy]cyclopentyl}[3,3′-bipyridine]-5-carboxamide] are over 1000 nM, under 10 nM and under 10 nM.
For `CN1CCN(C2CC(C)(C)c3cc(-c4ccc(CO[C@H]5CCC[C@@H]5NC(=O)c5cc(-c6ccc(F)nc6)cnc5N)cc4)ccc32)CC1` (stereo partly drawn) [Example 94, 6-amino-N-[(1S,2S)-2-({4-[3,3-dimethyl-1-(4-methylpiperazin-1-yl)-2,3-dihydro-1H-inden-5-yl]phenyl}methoxy)cyclopentyl]-6′-fluoro[3,3′-bipyridine]-5-carboxamide], the IC50 on human TYRO3 (455-end) is 10 to 100 nM; at human AXL (473-end) (setting [2]) it was under 10 nM; at human MER (528-end) (setting [3]) it was under 10 nM.
For `Cn1cc(-c2cnc(N)c(C(=O)N[C@H]3COC[C@@H]3OCc3ccc(-c4ccc5c(c4)CC[C@@H]5N4CCN(CCO)CC4)cc3)c2)cn1` [Example 45, 2-amino-N-{(3S,4R)-4-[(4-{(1S)-1-[4-(2-hydroxyethyl)piperazin-1-yl]-2,3-dihydro-1H-inden-5-yl}phenyl)methoxy]oxolan-3-yl}-5-(1-methyl-1H-pyrazol-4-yl)pyridine-3-carboxamide], the IC50 at human TYRO3 (455-end) is 100 to 1000 nM; against human AXL (473-end) (setting [2]), under 10 nM; on human MER (528-end) (setting [3]) it was under 10 nM.
As for `Cn1cc(-c2cnc(N)c(C(=O)N[C@H]3CCC[C@@H]3OCc3ccc(-c4ccc5c(ccn5CCC(=O)O)c4)cc3)c2)cn1` [Example 58, 3-{5-[4-({[(1S,2S)-2-{[2-amino-5-(1-methyl-1H-pyrazol-4-yl)pyridine-3-carbonyl]amino}cyclopentyl]oxy}methyl)phenyl]-1H-indol-1-yl}propanoic acid], the IC50 at human TYRO3 (455-end) is over 1000 nM; against human AXL (473-end) (setting [2]), 100 to 1000 nM; at human MER (528-end) (setting [3]), 10 to 100 nM.
Consider `Cn1cc(-c2cnc(N)c(C(=O)N[C@H]3CCC[C@@H]3OCc3ccc(-c4ccc5c(c4)CCCC5N4CCNCC4)cc3)c2)cn1` (stereo partly drawn) [Example 122, 2-amino-5-(1-methyl-1H-pyrazol-4-yl)-N-[(1S,2S)-2-({4-[5-(piperazin-1-yl)-5,6,7,8-tetrahydronaphthalen-2-yl]phenyl}methoxy)cyclopentyl]pyridine-3-carboxamide], for which the IC50 at human TYRO3 (455-end) is 10 to 100 nM; against human AXL (473-end) (setting [2]) it was under 10 nM; on human MER (528-end) (setting [3]), under 10 nM.
On to `Nc1ncc(-c2ccc(F)nc2)cc1C(=O)N[C@H]1COC[C@@H]1OCc1ccc(-c2ccc3c(c2)CCC3N2CCN(CCO)CC2)cc1` (stereo partly drawn) [Example 20, 6-amino-6′-fluoro-N-{(3S,4R)-4-[(4-{1-[4-(2-hydroxyethyl)piperazin-1-yl]-2,3-dihydro-1H-inden-5-yl}phenyl)methoxy]oxolan-3-yl}[3,3′-bipyridine]-5-carboxamide], for which the figures for the IC50 at human TYRO3 (455-end), on human AXL (473-end) (setting [2]) and at human MER (528-end) (setting [3]) were over 1000 nM, 10 to 100 nM and under 10 nM, respectively.
Taken in the same sequence, the figures for `Cn1cc(-c2cnc(N)c(C(=O)N[C@H]3CCC[C@@H]3OCc3ccc(-c4ccc5c(ccn5C5CCN(C(=O)OC(C)(C)C)CC5)c4)cc3)c2)cn1` [Example 4, tert-butyl 4-{5-[4-({[(1S,2S)-2-{[2-amino-5-(1-methyl-1H-pyrazol-4-yl)pyridine-3-carbonyl]amino}cyclopentyl]oxy}methyl)phenyl]-1H-indol-1-yl}piperidine-1-carboxylate] were over 1000 nM, 100 to 1000 nM and over 1000 nM.
The corresponding values for `CN(CCC(O)CO)C1CCc2cc(-c3ccc(CO[C@H]4CCC[C@@H]4NC(=O)c4cc(-c5ccc(F)nc5)cnc4N)cc3)ccc21` (stereo partly drawn) [Example 126, 6-amino-N-{(1S,2S)-2-[(4-{1-[(3,4-dihydroxybutyl)(methyl)amino]-2,3-dihydro-1H-inden-5-yl}phenyl)methoxy]cyclopentyl}-6′-fluoro[3,3′-bipyridine]-5-carboxamide] are over 1000 nM, 100 to 1000 nM and 10 to 100 nM.
For `COc1cccc(-c2cnc(N)c(C(=O)N[C@H]3CCC[C@@H]3OCc3ccc(-c4ccc5c(c4)CC[C@@H]5N4CCN(CCO)CC4)cc3)c2)n1` [Example 178, 6′-amino-N-{(1S,2S)-2-[(4-{(1S)-1-[4-(2-hydroxyethyl)piperazin-1-yl]-2,3-dihydro-1H-inden-5-yl}phenyl)methoxy]cyclopentyl}-6-methoxy[2,3′-bipyridine]-5′-carboxamide], the IC50 on human TYRO3 (455-end) was 10 to 100 nM; at human AXL (473-end) (setting [2]), under 10 nM; on human MER (528-end) (setting [3]), under 10 nM.
